Results published in patent US7781470B2, “Aminodicarboxylic acid derivatives having pharmaceutical properties” (Bayer Schering Pharma Aktiengesellschaft, priority 1999, dated 2010).
Counter-ions that a name gives are not always drawn. Values belong to the molecule of their own block, whether it stands above or below them.

How the values were obtained:
arteria saphena rings = test: Vasal relaxant action in vitro (phenylephrin-contracted artery rings); format: cell-based, Rabbits; conditions: Oryctolagus cuniculus; concentration reducing phenylephrin-induced contraction by 50%; rabbit arteria saphena rings; read-out: IC50 vasorelaxant action in vitro
Description: Rabbits are anaesthetized by intravenous injection of thiopental sodium […] (about 50 mg/kg) and exsanguinated. The arteria saphena is removed and divided into 3 mm wide rings. The rings are individually mounted on in each case one triangular pair of hooks, open at the end, made of 0.3 mm strong special wire (Remanium®). Under a pretension, each ring is transferred into 5 ml organ baths containing a warm, carbogen-aerated Krebs-Henseleit solution at 37° C. having the following composition (mM): NaCl: 119; KCl: 4.8; CaCl2×2H2O: 1; MgSO4×7 H2O: 1.4; KH2PO4: 1.2; NaHCO3: 25; glucose: 10; bovine serum albumin: 0.001%. The contractility is detected using Statham UC2 cells, amplified and digitalized by means of A/D converters (DAS-1802 HC, Keithley Instruments Munich), and recorded in parallel on linear recorders. Contractions are induced by addition of phenylephrin.
After several (in general 4) control cycles, the substance to be investigated is added in each further passage in increasing dosage, and the height of the contraction achieved under the influence of the test substance is compared with the height of the contraction achieved in the last preliminary passage. From this, the concentration which is necessary in order to reduce the contraction achieved in the preliminary control by 50% ((IC50) is calculated. The standard administration volume is 5 μl. The proportion of DMSO in the bath solution corresponds to 0.1%.

[1] = molecular target: T1, Haem-free sGC (recombinant soluble guanylate cyclase) (Rattus norvegicus, UniProt P20595); test: Stimulation of recombinant soluble guanylate cyclase (sGC) in vitro, haem-free enzyme; format: biochemical; conditions: for Stimulation (n-fold), haem-free sGC, basal: Tween 20 0.5%
T1 construct: made in house
T1 sequence (P20595 1-619): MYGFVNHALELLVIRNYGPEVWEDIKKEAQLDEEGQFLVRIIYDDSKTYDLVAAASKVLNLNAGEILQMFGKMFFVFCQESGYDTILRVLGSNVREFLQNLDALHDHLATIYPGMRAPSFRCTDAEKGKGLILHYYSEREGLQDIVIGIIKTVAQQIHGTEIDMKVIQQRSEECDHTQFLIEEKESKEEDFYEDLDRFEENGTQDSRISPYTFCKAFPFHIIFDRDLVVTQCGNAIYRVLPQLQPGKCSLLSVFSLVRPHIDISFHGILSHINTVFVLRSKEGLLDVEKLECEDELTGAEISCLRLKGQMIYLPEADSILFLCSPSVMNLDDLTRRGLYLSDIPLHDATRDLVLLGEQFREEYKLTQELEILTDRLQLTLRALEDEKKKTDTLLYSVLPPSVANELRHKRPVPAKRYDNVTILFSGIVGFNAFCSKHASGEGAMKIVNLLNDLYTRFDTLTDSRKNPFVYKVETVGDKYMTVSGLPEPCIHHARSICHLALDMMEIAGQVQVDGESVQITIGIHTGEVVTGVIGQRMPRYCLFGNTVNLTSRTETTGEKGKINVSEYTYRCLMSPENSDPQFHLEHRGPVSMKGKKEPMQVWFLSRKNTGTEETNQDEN
T1 sequence (P19686 1-690 partner): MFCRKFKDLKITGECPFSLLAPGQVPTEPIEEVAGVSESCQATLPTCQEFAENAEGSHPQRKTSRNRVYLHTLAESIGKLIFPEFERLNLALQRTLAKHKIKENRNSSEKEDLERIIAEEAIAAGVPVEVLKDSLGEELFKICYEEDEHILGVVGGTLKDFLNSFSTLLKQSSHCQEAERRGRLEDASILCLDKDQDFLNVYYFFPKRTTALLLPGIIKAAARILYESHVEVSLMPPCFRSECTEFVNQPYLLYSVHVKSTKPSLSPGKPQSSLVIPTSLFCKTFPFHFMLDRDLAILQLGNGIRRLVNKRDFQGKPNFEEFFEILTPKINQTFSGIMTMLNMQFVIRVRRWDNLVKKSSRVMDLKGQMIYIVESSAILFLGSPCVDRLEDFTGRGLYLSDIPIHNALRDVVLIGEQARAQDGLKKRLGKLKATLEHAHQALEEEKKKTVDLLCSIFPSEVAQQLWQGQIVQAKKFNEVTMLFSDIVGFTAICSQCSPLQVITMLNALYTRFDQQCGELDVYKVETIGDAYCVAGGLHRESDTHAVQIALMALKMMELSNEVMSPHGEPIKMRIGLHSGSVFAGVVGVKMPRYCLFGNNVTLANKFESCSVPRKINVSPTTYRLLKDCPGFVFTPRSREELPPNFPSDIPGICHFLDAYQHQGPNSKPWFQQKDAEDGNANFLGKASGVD
Description: (§1) The investigations on the stimulation of recombinant soluble guanylate cyclase (sGC) and the compounds according to the invention with and without sodium nitroprusside and with and without the haem-dependent sGC inhibitor 1H-1,2,4-oxadiazole-(4,3a)-quinoxalin-1-one (ODQ) were carried out by the method described in detail in the following literature reference: M. Hoenicka, E. M. Becker, H. Apeler, T. Sirichoke, H. Schroeder, R. Gerzer and J.-P. Stasch: Purified soluble guanylyl cyclase expressed in a baculovirus/Sf9 system: stimulation by YC-1, nitric oxide, and […]. J. Mol. Med. 77 (1999): 14-23.
Haem-free guanylate cyclase was obtained by adding Tween 20 to the sample buffer (final concentration 0.5%).
(§2) Activation of sGC by a test substance is stated as n-fold stimulation of basal activity.

[2] = molecular target: T2, Haem-containing sGC (recombinant soluble guanylate cyclase) (Rattus norvegicus, UniProt P20595); test: Stimulation of recombinant soluble guanylate cyclase (sGC) in vitro, haem-containing enzyme; format: biochemical
T2 construct: made in house
T2 sequence (P20595 1-619): T1 sequence (P20595 1-619)
T2 sequence (P19686 1-690 partner): T1 sequence (P19686 1-690 partner)
Description: as §1, §2

[3] = 0.1 μM test compound + ODQ 10 μM
[4] = 1.0 μM test compound + ODQ 10 μM
[5] = 10 μM test compound + ODQ 10 μM
[6] = ODQ 10 μM, Ex. 87 concentration 0

- IC50 (arteria saphena rings): 0.4 nM
Compound: O=C(O)CCCCN(CCc1ccccc1OCc1ccc(CCc2ccccc2)cc1)Cc1ccc(C(=O)O)cc1 [Example 8, 4-[((4-Carboxybutyl)-{2-[(4-phenethylbenzyl)oxy]phenethyl}amino)-methyl]benzoic Acid Hydrochloride]

- IC50 (arteria saphena rings): 2.8 nM
Compound: O=C(O)CCCCN(CCc1ccccc1OCc1ccc(Oc2ccc(Cl)cc2)cc1)Cc1ccc(C(=O)O)cc1 [Example 28]

- IC50 (arteria saphena rings): 17 nM
Compound: CC(C)(C)c1ccc(COc2ccccc2CCN(CCCCC(=O)O)Cc2ccc(C(=O)O)cc2)cc1 [Example 30]

- IC50 (arteria saphena rings): 6.5 nM
Compound: O=C(O)CCCCN(CCc1ccccc1OCc1ccc(OCc2ccccc2)cc1)Cc1ccc(C(=O)O)cc1 [Example 32]

- IC50 (arteria saphena rings): 0.5 nM
Compound: O=C(O)CCCCN(CCc1ccccc1OCc1ccc(/C=C/c2ccccc2)cc1)Cc1ccc(C(=O)O)cc1 [Example 33]

- IC50 (arteria saphena rings): 830 nM
Compound: C#CCOc1ccccc1CCN(CCCCC(=O)O)Cc1ccc(C(=O)O)cc1 [Example 37]

- IC50 (arteria saphena rings): 73 nM
Compound: O=C(O)CCCCCN(CCc1ccccc1OCc1ccc(-c2ccccc2)cc1)Cc1ccc(C(=O)O)cc1 [Example 56]

- IC50 (arteria saphena rings): 0.2 nM
Compound: O=C(O)CCCCN(CCc1ccccc1OCc1ccc(C2CCCCC2)cc1)Cc1ccc(C(=O)O)cc1 [Example 70]

- IC50 (arteria saphena rings): 29 nM
Compound: O=C(O)CCCCN(CCc1ccccc1OCc1ccc(-c2csc(C(F)(F)F)n2)cc1)Cc1ccc(C(=O)O)cc1 [Example 72]

- IC50 (arteria saphena rings): 29 nM
Compound: O=C(O)CCCCN(CCc1ccccc1OCc1ccc2c(c1)CCCC2)Cc1ccc(C(=O)O)cc1 [Example 76]

- IC50 (arteria saphena rings): 0.4 nM
Compound: O=C(O)CCCCN(CCc1ccccc1OCc1ccc(Oc2ccc(C(F)(F)F)cc2)cc1)Cc1ccc(C(=O)O)cc1 [Example 86]

- Stimulation (n-fold), haem-free sGC, +ODQ (10 μM) [1, 3]: 361 n-fold
- Stimulation (n-fold), haem-free sGC, basal ([1]; 0.1 μM test compound): 353 n-fold
- Stimulation (n-fold), haem-free sGC, +ODQ (10 μM) [1, 4]: 457 n-fold
- Stimulation (n-fold), haem-free sGC, basal ([1]; 1.0 μM test compound): 491 n-fold
- Stimulation (n-fold), haem-free sGC, +ODQ (10 μM) [1, 5]: 477 n-fold
- Stimulation (n-fold), haem-free sGC, basal ([1]; 10 μM test compound): 529 n-fold
- Stimulation (n-fold), haem-containing sGC, +ODQ (10 μM) [2, 3]: 132 n-fold
- Stimulation (n-fold), haem-containing sGC, +SNP (0.1 μM) ([2]; 0.1 μM test compound + SNP 0.1 μM): 41 n-fold
- Stimulation (n-fold), haem-containing sGC, basal ([2]; 0.1 μM test compound, n-fold stimulation of basal activity): 15 n-fold
- Stimulation (n-fold), haem-containing sGC, basal ([2]; 1.0 μM test compound): 18 n-fold
- Stimulation (n-fold), haem-containing sGC, +ODQ (10 μM) [2, 4]: 115 n-fold
- Stimulation (n-fold), haem-containing sGC, +SNP (0.1 μM) ([2]; 1.0 μM test compound + SNP 0.1 μM): 47 n-fold
- Stimulation (n-fold), haem-containing sGC, basal ([2]; 10 μM test compound): 24 n-fold
- Stimulation (n-fold), haem-containing sGC, +ODQ (10 μM) [2, 5]: 181 n-fold
- Stimulation (n-fold), haem-containing sGC, +SNP (0.1 μM) ([2]; 10 μM test compound + SNP 0.1 μM): 60 n-fold
- IC50 (arteria saphena rings): 0.5 nM
Compound: O=C(O)CCCCN(CCc1ccccc1OCc1ccc(-c2ccc(Cl)cc2)cc1)Cc1ccc(C(=O)O)cc1 [Example 87]

- IC50 (arteria saphena rings): 0.4 nM
Compound: COc1ccc(-c2ccc(COc3ccccc3CCN(CCCCC(=O)O)Cc3ccc(C(=O)O)cc3)cc2)cc1 [Example 88]

- IC50 (arteria saphena rings): 3.4 nM
Compound: O=C(O)c1ccc(CN(CCOc2ccc(C(=O)O)cc2)CCc2ccccc2OCCCCCc2ccccc2)cc1 [Example 98]

- IC50 (arteria saphena rings): 0.2 nM
Compound: O=C(O)c1ccc(CN(CCOc2ccc(C(=O)O)cc2)CCc2ccccc2OCc2ccc(C3CCCCC3)cc2)cc1 [Example 102]

- IC50 (arteria saphena rings): 3.9 nM
Compound: CCCCCCCCOc1ccccc1CCN(CCOc1ccc(C(=O)O)cc1)Cc1ccc(C(=O)O)cc1 [Example 103]

- Stimulation (n-fold), haem-free sGC, ODQ alone [1, 6]: 1 n-fold
- Stimulation (n-fold), haem-containing sGC, ODQ alone [2, 6]: 1 n-fold
Compound: O=c1onc2cnc3ccccc3n12 [ODQ, 1H-1,2,4-oxadiazol-(4,3a)-quinoxalin-1-one, reference compound]
